Measured values from patent US9150560B2, “Inhibitors of histone deacetylase” (Janssen Pharmaceutica, N.V., priority 2002, dated 2015).
Where two headings read alike, the source gives them in different places.

Columns and labels:
[1] = Kinetic solubility in aqueous media (nephelometry); type: physicochemical; settings: phosphate citrate buffer pH 7.4, turbidity of three dilution steps
Experimental: Kinetic solubility in aqueous media measures the ability of a compound to stay in aqueous solution upon dilution (see example C.3).
DMSO-stock solutions are diluted with a single aqueous buffer solvent in 3 consecutive steps. For every dilution turbidity is measured with a nephelometer.
In the first dilution step, 10 μl of a concentrated stock-solution of the active compound, solubilized in DMSO (5 mM), was added to 100 μl phosphate citrate buffer pH 7.4 and mixed. In the second dilution step, an aliquot (20 μl) of the first dilution step was further dispensed in 100 μl phosphate citrate buffer pH 7.4 and mixed. Finally, in the third dilution step, a sample (20 μl) of the second dilution step was further diluted in 100 μl phosphate citrate buffer pH 7.4 and mixed. All dilutions were performed in 96-well plates. Immediately after the last dilution step the turbidity of the three consecutive dilution steps were measured with a nephelometer. Dilution was done in triplicate for each compound to exclude occasional errors. Based on the turbidity measurements a ranking is performed into 3 classes. Compounds with high solubility obtained a score of 3 and for this compounds the first dilution is clear. Compounds with medium solubility obtained a score of 2. For these compounds the first dilution is unclear and the second dilution is clear. […] The solubility of 9 compounds was measured.

[2] = molecular target: histone deacetylase (HDAC), HeLa nuclear extracts; assay: In vitro assay for inhibition of histone deacetylase; type: biochemical; parameters: key: pIC50 = negative log of IC50; settings: [3H]acetylated histone H4 peptide substrate, 30 min
Experimental: The in vitro assay for inhibition of histone deacetylase (see example C.1) measures the inhibition of HDAC enzymatic activity obtained with the compounds of formula (I).
HeLa nuclear extracts (supplier: Biomol) were incubated at 60 μg/ml with 2×10^−8 M of radiolabeled peptide substrate. As a substrate for measuring HDAC activity a synthetic peptide, i.e. the amino acids 14-21 of histone H4, was used. The substrate is biotinylated at the NH2-terminal part with a 6-aminohexanoic acid spacer, and is protected at the COOH-terminal part by an amide group and specifically [^3H]acetylated at lysine 16. The substrate, biotin-(6-aminohexanoic)Gly-Ala-([^3H]-acetyl-Lys-Arg-His-Arg-Lys-Val-NH2), was added in a buffer containing 25 mM Hepes, 1 M sucrose, 0.1 mg/ml BSA and 0.01% Triton X-100 at pH 7.4. After 30 min the deacetylation reaction was terminated by the addition of HCl and acetic acid. (final concentration 0.035 mM and 3.8 mM respectively). After stopping the reaction, the free ^3H-acetate was extracted with ethylacetate. After mixing and centrifugation, the radioactivity in an aliquot of the upper (organic) phase was counted in a β-counter.
For each experiment, controls (containing HeLa nuclear extract and DMSO without compound), a blank incubation (containing DMSO but no HeLa nuclear extract or compound) and samples (containing compound dissolved in DMSO and HeLa nuclear extract) were run in parallel. In first instance, compounds were tested at a concentration of 10^−5M. […] In each test the blank value was substracted from both the control and the sample values. The control sample represented 100% of substrate deactylation. For each sample the radioactivity was expressed as a percentage of the mean value of the controls. […] Herein the effects of test compounds are expressed as pIC50 (the negative log value of the IC50-value).

[3] = test system: A2780 ovarian carcinoma cells; assay: Determination of antiproliferative activity on A2780 cells (MTT); type: cell-based, human; settings: four days of incubation; for IC50: Homo sapiens, 96 h, read-out: Cellular activity pIC50 (converted)
Experimental: Cellular activity of the compounds of formula (I) was determined on A2780 tumour cells using a colorimetric assay for cell toxicity or survival (Mosmann Tim, Journal of Immunological Methods 65: 55-63, 1983)(see example C.2).
All compounds tested were dissolved in DMSO and further dilutions were made in culture medium. Final DMSO concentrations never exceeded 0.1% (v/v) in cell proliferation assays. Controls contained A2780 cells and DMSO without compound and blanks contained DMSO but no cells. MTT was dissolved at 5 mg/ml in PBS. A glycine buffer comprised of 0.1 M glycine and 0.1 M NaCl buffered to pH 10.5 with NaOH (1 N) was prepared (all reagents were from Merck).
The human A2780 ovarian carcinoma cells (a kind gift from Dr. T. C. Hamilton [Fox Chase Cancer Centre, Pennsylvania, USA]) were cultured in RPMI 1640 medium supplemented with 2 mM L-glutamine, 50 μg/ml gentamicin and 10% fetal calf serum. Cells were routinely kept as monolayer cultures at 37° C. in a humidified 5% CO2 atmosphere. Cells were passaged once a week using a trypsin/EDTA solution at a split ratio of 1:40. All media and supplements were obtained from Life Technologies. Cells were free of mycoplasma contamination as determined using the Gen-Probe Mycoplasma Tissue Culture kit (supplier: BioMérieux).
Cells were seeded in NUNC™ 96-well culture plates (Supplier: Life Technologies) and allowed to adhere to the plastic overnight. Densities used for plating were 1500 cells per well in a total volume of 200 μl medium. After cell adhesion to the plates, medium was changed and drugs and/or solvents were added to a final volume of 200 μl. Following four days of incubation, medium was replaced by 200 μl fresh medium and cell density and viability was assessed using an MTT-based assay. To each well, 25 μl MTT solution was added and the cells were further incubated for 2 hours at 37° C. The medium was then carefully aspirated and the blue MTT-formazan product was solubilized by addition of 25 μl glycine buffer followed by 100 μl of DMSO. […] Within an experiment, the results for each experimental condition are the mean of 3 replicate wells. For initial screening purposes, compounds were tested at a single fixed concentration of 10^−6M. For active compounds, the experiments were repeated to establish full concentration-response curves. For each experiment, controls (containing no drug) and a blank incubation (containing no cells or drugs) were run in parallel. The blank value was subtracted from all control and sample values. For each sample, the mean value for cell growth (in absorbance units) was expressed as a percentage of the mean value for cell growth of the control. […] Herein the effects of test compounds are expressed as pIC50 (the negative log value of the IC50-value).

[4] = not given; remark: listed apart in the source

% metabolism (human, 15 min, 5 μM) [%]	Enzyme activity pIC50 [2]	IC50 [3] [nM]	melting point [4] [°C]	Cellular activity pIC50 [3]	SMILES	Solubility Score [1]	% metabolism (15 min incubation, compound 5 μM, microsomes 1 mg/ml, NADPH-generating system) [%]
45					COc1cc(N)c(Cl)cc1C(=O)NC1CCN(CCCOc2ccc(F)cc2)CC1OC (stereo not shown) [Cisapride]		
	<5	> 10000			O=C(CS)Nc1ccc(N2CCC3(CC2)C(=O)NCN3c2ccccc2)cc1 [Co. No. 1]	1 (Compounds with low solubility obtained a score of 1 and for these compounds both the first and the second dilution are unclear)	
	6.615	2920	> 260		CN(C)S(=O)(=O)N1CCN(c2ncc(C(=O)NO)cn2)CC1 [Co. No. 2]	3 (Compounds with high solubility obtained a score of 3 and for this compounds the first dilution is clear)	
	6.881	> 10000	212		NS(=O)(=O)N1CCN(c2ncc(C(=O)NO)cn2)CC1 [Co. No. 3]	3 (Compounds with high solubility obtained a score of 3 and for this compounds the first dilution is clear)	
	7.27	2960	182		CN(C)S(=O)(=O)NCC1CCN(c2ncc(C(=O)NO)cn2)CC1 [Co. No. 4]	3 (Compounds with high solubility obtained a score of 3 and for this compounds the first dilution is clear)	
	7.096	659			O=C(NO)c1cnc(N2CCN(C(=O)C(c3ccccc3)c3ccccc3)CC2)nc1 [Co. No. 5]		
	7.104	1490	130		O=C(NO)c1cnc(N2CCN(C(=O)c3ccc4ccccc4c3)CC2)nc1 [Co. No. 6]	3 (Compounds with high solubility obtained a score of 3 and for this compounds the first dilution is clear)	
	6.173			6.166	CCCCCCCCS(=O)(=O)N1CCN(c2ccc(C(=O)NO)cc2)CC1 [compound 18]	1 (Compounds with low solubility obtained a score of 1 and for these compounds both the first and the second dilution are unclear)	
	7.073			6.084	O=C(NO)c1cnc(N2CCN(C(=O)c3cccc4ccccc34)CC2)nc1 [compound 24]		
					CCCO [propanol]		25
